# Results as given in publication PMC8213057, “Targeting ALK2: An Open Science Approach to Developing Therapeutics for the Treatment of Diffuse Intrinsic Pontine Glioma” (Journal of Medicinal Chemistry, 2020).
# Key:
# TTBK2 = TTBK2 (Homo sapiens, UniProt Q6IQ55); assay: biochemical; details: read-out: % enzyme activity, 1 μM; Run 1, Run 2
# LCK2/ICK = biological target: T1, LCK2/ICK (Homo sapiens, UniProt Q9UPZ9); details: 1 μM; Run 1, Run 2
# T1 sequence (Q9UPZ9 1-632): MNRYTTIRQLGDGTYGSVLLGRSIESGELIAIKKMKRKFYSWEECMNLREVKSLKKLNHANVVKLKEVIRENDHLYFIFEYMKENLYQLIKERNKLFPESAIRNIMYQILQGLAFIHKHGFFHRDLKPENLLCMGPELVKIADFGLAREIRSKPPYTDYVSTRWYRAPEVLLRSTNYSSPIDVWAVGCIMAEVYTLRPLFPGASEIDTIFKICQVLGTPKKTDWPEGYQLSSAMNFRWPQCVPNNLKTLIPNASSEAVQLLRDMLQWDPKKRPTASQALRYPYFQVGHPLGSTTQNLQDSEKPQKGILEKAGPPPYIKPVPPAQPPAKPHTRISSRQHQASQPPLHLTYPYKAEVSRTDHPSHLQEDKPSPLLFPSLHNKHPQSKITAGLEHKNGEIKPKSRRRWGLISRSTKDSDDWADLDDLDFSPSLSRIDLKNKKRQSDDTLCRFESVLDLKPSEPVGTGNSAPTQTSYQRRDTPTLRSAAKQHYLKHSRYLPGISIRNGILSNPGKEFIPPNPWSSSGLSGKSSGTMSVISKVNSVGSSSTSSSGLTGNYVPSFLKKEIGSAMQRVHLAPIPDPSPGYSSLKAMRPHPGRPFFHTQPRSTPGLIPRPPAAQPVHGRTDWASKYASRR
# SIK3 = SIK3 (Homo sapiens, UniProt Q9Y2K2); details: 1 μM; Run 1, Run 2
# RIPK2 = RIPK2 (Homo sapiens, UniProt O43353); assay: biochemical; details: read-out: % enzyme activity, 1 μM; Run 1, Run 2
# MLK2/MAP3K10 = MLK2/MAP3K10 (Homo sapiens, UniProt Q02779); details: 1 μM; Run 1, Run 2
# SGK1 = biological target: T2, SGK1 (Homo sapiens, UniProt O00141); assay: biochemical; details: read-out: % enzyme activity, 1 μM; Run 1, Run 2
# T2 sequence (O00141 1-431): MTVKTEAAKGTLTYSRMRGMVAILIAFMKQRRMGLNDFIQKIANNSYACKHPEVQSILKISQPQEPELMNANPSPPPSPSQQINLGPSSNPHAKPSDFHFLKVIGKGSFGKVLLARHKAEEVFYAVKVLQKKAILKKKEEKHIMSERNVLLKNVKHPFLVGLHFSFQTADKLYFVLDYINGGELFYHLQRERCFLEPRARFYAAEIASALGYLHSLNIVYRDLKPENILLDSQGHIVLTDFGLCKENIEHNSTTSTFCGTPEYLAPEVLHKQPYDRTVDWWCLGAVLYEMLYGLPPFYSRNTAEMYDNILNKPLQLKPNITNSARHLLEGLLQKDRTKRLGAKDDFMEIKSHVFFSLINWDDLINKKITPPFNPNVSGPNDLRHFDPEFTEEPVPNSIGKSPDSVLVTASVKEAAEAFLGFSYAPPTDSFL
# LATS1 = biological target: T3, LATS1 (Homo sapiens, UniProt O95835); assay: biochemical; details: read-out: % enzyme activity, 1 μM; Run 1, Run 2
# T3 sequence (O95835 1-1130): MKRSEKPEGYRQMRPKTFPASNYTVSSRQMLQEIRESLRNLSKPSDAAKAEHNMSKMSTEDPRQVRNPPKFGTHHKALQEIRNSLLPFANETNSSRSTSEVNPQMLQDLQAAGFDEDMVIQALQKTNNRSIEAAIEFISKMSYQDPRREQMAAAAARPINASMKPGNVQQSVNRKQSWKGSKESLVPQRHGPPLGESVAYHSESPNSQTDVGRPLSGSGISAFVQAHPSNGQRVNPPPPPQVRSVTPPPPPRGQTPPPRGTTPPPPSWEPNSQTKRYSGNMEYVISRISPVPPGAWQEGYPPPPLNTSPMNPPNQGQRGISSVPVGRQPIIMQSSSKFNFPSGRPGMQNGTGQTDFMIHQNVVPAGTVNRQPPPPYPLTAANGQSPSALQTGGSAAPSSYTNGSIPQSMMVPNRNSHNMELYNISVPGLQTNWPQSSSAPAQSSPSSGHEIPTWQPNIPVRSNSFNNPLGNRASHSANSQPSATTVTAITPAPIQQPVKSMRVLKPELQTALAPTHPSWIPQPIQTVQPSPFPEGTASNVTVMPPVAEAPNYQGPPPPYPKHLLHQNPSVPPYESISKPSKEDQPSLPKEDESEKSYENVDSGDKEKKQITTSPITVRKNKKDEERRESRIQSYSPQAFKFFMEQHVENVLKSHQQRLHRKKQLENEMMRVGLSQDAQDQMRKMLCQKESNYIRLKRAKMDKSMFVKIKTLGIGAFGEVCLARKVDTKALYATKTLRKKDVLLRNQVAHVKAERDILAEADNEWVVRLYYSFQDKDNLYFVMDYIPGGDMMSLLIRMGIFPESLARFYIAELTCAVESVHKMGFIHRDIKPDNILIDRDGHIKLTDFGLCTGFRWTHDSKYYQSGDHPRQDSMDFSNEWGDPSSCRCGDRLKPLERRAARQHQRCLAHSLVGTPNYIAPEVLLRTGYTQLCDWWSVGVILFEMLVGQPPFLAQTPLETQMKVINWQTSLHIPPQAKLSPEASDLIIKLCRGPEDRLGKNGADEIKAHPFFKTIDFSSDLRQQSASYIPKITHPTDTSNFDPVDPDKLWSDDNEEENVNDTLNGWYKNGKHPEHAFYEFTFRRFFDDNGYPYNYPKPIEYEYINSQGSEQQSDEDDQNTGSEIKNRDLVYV
# JNK2 = JNK2 (Homo sapiens, UniProt P45984); details: 1 μM; Run 1, Run 2
# Sequence of JNK2 (P45984 whole entry): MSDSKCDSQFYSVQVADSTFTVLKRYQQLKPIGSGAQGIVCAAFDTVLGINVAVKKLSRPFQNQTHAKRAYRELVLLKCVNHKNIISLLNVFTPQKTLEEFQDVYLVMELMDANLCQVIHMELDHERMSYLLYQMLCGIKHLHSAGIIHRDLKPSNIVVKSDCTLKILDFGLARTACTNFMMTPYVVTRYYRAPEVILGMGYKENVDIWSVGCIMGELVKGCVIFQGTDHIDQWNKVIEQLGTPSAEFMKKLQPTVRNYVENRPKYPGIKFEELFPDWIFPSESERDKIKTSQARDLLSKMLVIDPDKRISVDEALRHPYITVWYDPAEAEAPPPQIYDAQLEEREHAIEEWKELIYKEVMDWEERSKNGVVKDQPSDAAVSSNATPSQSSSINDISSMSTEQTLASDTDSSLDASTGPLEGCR
# Sequence of TTBK2 (Q6IQ55 whole entry): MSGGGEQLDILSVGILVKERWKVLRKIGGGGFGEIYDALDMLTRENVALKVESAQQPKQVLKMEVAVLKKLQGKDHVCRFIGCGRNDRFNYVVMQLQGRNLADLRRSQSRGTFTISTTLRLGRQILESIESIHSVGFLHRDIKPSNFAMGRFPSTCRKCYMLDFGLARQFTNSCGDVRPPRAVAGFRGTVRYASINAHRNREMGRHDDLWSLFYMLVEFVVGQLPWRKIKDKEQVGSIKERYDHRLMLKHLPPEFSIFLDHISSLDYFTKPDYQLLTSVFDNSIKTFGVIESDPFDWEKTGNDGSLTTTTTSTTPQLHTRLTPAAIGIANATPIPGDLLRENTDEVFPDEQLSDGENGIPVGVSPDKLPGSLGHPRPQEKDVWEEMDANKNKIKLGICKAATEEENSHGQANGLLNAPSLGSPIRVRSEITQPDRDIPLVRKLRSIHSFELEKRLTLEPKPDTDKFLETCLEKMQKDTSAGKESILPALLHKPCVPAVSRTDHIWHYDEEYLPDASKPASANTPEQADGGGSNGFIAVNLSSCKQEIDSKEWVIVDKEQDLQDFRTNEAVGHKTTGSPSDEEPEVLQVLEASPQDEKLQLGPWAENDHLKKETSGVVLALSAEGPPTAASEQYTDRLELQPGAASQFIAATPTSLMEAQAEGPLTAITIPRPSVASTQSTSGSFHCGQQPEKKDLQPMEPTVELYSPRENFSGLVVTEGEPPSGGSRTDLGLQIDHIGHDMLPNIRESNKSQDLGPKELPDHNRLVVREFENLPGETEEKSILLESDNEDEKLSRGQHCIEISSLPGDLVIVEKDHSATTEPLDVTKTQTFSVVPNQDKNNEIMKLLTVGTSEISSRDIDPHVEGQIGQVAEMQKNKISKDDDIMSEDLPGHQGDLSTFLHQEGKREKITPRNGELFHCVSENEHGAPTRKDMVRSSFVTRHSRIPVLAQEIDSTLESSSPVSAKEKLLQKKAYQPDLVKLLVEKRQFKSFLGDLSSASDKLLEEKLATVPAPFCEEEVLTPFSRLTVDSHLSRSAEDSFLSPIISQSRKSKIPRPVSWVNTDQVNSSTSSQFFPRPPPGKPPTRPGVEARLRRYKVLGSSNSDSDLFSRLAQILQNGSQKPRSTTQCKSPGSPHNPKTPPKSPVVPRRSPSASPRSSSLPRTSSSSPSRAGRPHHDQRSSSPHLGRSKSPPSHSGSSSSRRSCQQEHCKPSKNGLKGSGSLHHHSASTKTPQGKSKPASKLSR
# Sequence of RIPK2 (O43353 whole entry): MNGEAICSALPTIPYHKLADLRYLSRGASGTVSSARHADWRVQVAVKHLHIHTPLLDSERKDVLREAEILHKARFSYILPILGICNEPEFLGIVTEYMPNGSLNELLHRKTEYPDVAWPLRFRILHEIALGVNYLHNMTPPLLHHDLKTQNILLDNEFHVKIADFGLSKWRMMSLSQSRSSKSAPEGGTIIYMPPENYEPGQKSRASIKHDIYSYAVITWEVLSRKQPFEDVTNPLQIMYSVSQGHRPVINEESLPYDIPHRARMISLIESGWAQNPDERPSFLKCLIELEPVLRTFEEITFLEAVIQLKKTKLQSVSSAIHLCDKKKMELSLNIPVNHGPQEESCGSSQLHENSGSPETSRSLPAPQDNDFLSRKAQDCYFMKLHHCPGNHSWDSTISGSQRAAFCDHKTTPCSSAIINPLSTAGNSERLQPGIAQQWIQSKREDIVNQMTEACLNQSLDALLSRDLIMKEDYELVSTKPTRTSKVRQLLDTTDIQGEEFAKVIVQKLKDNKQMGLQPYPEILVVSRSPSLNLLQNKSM
# Sequence of SIK3 (Q9Y2K2 whole entry): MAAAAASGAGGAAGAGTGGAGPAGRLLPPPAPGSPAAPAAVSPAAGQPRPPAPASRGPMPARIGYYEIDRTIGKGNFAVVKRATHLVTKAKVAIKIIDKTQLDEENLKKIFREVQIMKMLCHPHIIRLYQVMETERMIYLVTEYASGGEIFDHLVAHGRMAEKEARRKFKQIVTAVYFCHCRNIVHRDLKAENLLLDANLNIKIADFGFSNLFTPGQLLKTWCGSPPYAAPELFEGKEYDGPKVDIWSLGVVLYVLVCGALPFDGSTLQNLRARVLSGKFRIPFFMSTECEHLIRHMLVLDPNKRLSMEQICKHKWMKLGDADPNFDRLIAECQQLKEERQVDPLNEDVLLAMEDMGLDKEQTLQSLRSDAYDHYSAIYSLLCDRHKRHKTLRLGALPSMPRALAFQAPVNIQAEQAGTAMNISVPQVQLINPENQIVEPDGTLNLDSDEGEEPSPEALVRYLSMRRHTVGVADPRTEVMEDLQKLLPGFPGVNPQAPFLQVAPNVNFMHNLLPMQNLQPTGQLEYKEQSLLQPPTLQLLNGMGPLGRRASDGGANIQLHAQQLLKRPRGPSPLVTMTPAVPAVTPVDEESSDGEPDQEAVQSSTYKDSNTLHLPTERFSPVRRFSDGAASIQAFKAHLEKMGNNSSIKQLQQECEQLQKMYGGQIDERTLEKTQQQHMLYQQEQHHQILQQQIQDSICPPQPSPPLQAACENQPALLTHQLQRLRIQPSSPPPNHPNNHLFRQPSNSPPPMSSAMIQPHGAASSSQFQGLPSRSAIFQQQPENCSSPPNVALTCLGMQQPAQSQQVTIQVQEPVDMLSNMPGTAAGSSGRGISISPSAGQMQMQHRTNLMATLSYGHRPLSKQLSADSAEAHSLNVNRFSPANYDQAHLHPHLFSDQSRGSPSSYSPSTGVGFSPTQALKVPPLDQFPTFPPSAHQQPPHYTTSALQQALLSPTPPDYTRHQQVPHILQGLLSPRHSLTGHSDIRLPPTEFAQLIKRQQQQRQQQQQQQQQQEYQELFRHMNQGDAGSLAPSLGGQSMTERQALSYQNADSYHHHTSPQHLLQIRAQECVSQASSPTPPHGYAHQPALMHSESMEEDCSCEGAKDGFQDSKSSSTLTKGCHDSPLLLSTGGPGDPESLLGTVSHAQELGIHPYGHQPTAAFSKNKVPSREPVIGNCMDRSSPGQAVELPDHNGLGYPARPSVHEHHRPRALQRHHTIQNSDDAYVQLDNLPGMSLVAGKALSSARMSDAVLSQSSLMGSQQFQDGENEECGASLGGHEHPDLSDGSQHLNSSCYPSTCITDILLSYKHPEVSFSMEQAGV
# Sequence of MLK2/MAP3K10 (Q02779 whole entry): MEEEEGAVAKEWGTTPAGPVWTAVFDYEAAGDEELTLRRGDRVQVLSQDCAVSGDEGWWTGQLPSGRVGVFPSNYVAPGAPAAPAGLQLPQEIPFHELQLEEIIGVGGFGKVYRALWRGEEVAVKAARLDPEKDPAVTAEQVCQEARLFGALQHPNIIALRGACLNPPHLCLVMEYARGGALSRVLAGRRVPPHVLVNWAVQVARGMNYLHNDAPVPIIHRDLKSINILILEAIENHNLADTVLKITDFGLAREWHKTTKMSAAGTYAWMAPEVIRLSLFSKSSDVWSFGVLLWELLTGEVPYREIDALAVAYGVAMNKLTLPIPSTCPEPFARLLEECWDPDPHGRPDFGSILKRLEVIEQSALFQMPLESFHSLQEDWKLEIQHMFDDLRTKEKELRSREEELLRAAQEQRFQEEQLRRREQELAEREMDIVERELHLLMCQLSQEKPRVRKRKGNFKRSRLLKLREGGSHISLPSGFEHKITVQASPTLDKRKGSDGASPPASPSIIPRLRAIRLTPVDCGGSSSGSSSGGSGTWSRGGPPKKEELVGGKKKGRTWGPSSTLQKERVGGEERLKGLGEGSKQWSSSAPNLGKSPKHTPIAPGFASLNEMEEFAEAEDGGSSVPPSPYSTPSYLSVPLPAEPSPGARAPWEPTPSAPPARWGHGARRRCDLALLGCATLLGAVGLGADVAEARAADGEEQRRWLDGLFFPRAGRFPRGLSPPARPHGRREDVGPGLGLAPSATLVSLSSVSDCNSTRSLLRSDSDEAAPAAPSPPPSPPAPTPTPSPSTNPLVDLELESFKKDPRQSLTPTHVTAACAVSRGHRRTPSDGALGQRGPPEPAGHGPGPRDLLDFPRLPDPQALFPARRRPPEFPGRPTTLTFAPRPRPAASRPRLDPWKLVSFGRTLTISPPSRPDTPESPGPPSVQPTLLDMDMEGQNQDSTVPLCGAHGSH
Compound,remaining activity at 1 µM (TTBK2) [%],% enzyme activity (LCK2/ICK) [%],% enzyme activity (SIK3) [%],remaining activity at 1 µM (RIPK2) [%],% enzyme activity (MLK2/MAP3K10) [%],remaining activity at 1 µM (SGK1) [%],remaining activity at 1 µM (LATS1) [%],% enzyme activity (JNK2) [%]
"COc1cc(-c2cncc(-c3ccc(N4CCN(C)CC4)cc3)c2C)cc(F)c1C(N)=O [Compound 26a, 2-Fluoro-6-methoxy-4-(4-methyl-5-(4-(4-methylpiperazin-1-yl)phenyl)pyridin-3-yl)benzamide]",97.1,104.57,58.19,71.1,86.29,94.9,97.4,91.99
"COc1cc(-c2cncc(-c3ccc(N4C[C@@H](C)N(C)[C@@H](C)C4)cc3)c2C)cc(F)c1C(N)=O [Compound 26c, 2-Fluoro-6-methoxy-4-(4-methyl-5-(4-((3R,5S)-3,4,5-trimethylpiperazin-1-yl)phenyl)pyridin-3-yl)benzamide]",97.8,95.60,82.93,89.7,96.07,98.8,102,94.14
